Source: PMC7305075 (Cancer Chemotherapy and Pharmacology, 2020)
Where two headings read alike, the source gives them in different places.

Experiments:
[1] = Plasma pharmacokinetics of paracetamol, paracetamol glucuronide and paracetamol sulphate in rats (HPLC-UV, non-compartmental); assay type: in vivo, Wistar rats; settings: for Cmax / ka (absorption rate constant): plasma, mean ± SD (CV %)
Method: The experimental protocol assuming involvement of animals in this study was reviewed and approved by the Local Ethics Committee, Poznań, Poland (no 61/2017). All procedures were performed in accordance with the European Union regulations concerning the handling and use of laboratory animals. Adult male Wistar rats (weight 480–530 g) were used in the study. The animals were maintained under standard breeding conditions with a 12/12 h light–dark cycle (lights on at 06.00, lights off at 18.00) at constant room temperature (23 ± 2 °C), relative humidity of 55 ± 10% and given ad libitum access to food and water. The animals were allowed to acclimatise for a week before the beginning of the experiments. The rats were divided into three groups. […] To make sure that the animals received the entire dose of the drug, 1 mL of 10% DMSO was then administered to rinse the probe. 100 µL of blood was collected from each rat by cutting off a piece of his tail. The blood samples were collected into heparinised test tubes at the following time points: 0, 0.5, 1, 2, 3, 4, 5, 6, 7, 8, 10, 12, 24, 30, 48, 72, 96 h. […] All the blood samples were centrifuged at 2.880 g for 10 min at 4 °C.
Separation was achieved by isocratic elution of the mobile phase, comprising sodium sulphate 0.05 M pH 2.2 (adjusted with 85% orthophosphoric acid) and acetonitrile (93:7, v/v), at a flow rate of 1.0 mL/min through an BDS Hypersil® C18 column (150 mm × 4.6 mm, 5.0 μm particle size) (Thermo Electron Corporation®, Waltham, MA, USA). The total time of analysis for each run was 10 min. The column temperature was maintained at 25 °C, the UV detection wavelength was set at 254 nm and the injection volume was 50 μL. Theophylline was used as the internal standard (IS).
The maximum plasma concentration (Cmax) and the time to reach the Cmax (tmax) were derived directly from the observed plasma concentrations. The total area under the concentration–time curve (AUC) was estimated by the trapezoidal rule with extrapolation from time zero to infinity (AUC0-∞). The elimination half-life (t0.5) was estimated from ln2/kel. The apparent plasma drug clearance (Cl/F) was calculated by dividing the dose (D) by the AUC0-∞. The apparent volume of distribution (Vd/F) was estimated from D/(kel × AUC0-∞).

[2] = cited from earlier work
[3] = set-up: method as in PMID 26739624; settings: ref [24], cited from earlier work
[4] = Plasma pharmacokinetics of sorafenib and sorafenib N-oxide in rats (HPLC-UV, non-compartmental); assay type: in vivo, Wistar rats; settings: mean ± SD (CV %)
Method: The experimental protocol assuming involvement of animals in this study was reviewed and approved by the Local Ethics Committee, Poznań, Poland (no 61/2017). All procedures were performed in accordance with the European Union regulations concerning the handling and use of laboratory animals. Adult male Wistar rats (weight 480–530 g) were used in the study. The animals were maintained under standard breeding conditions with a 12/12 h light–dark cycle (lights on at 06.00, lights off at 18.00) at constant room temperature (23 ± 2 °C), relative humidity of 55 ± 10% and given ad libitum access to food and water. The animals were allowed to acclimatise for a week before the beginning of the experiments. The rats were divided into three groups. […] To make sure that the animals received the entire dose of the drug, 1 mL of 10% DMSO was then administered to rinse the probe. 100 µL of blood was collected from each rat by cutting off a piece of his tail. The blood samples were collected into heparinised test tubes at the following time points: 0, 0.5, 1, 2, 3, 4, 5, 6, 7, 8, 10, 12, 24, 30, 48, 72, 96 h. […]
The maximum plasma concentration (Cmax) and the time to reach the Cmax (tmax) were derived directly from the observed plasma concentrations. […] The apparent plasma drug clearance (Cl/F) was calculated by dividing the dose (D) by the AUC0-∞. […]

UGT1A1 = settings: in vitro studies; ref [21]; cited from earlier work
[5] = cited from earlier work; remark: listed apart in the source
[6] = in vitro study; ref [42]; cited from earlier work
UGT1A9 = settings: cited from earlier work
UGT2B15 = tested on: UGT2B15; set-up: method as in Liu et al. [26]; settings: in vitro, recombinant UDP-glucuronyl transferases and liver microsomes, paracetamol glucuronidation; ref Liu et al. [26]; cited from earlier work
[7] = set-up: method as in Karbownik et al. [36], [37]; settings: ref Karbownik et al. [36], [37]; cited from earlier work
[8] = set-up: method as in Karbownik et al. [36]–[38]; settings: in vivo; ref Karbownik et al. [36]–[38]; cited from earlier work
[9] = IS+PA group (with sorafenib) vs. IIIPA group
[10] = single oral paracetamol 100 mg/kg b.w. + sorafenib 100 mg/kg b.w. (IS+PA group)
[11] = single oral paracetamol 100 mg/kg b.w. alone (IIIPA group)
[12] = analogous dose (100 mg/kg) orally, ref Mekjaruskul et al. [35]
[13] = single dose 100 mg/kg orally, ref Pingili et al. [34]
[14] = in vitro, recombinant UDP-glucuronyl transferases and liver microsomes, paracetamol glucuronidation, ref Liu et al. [26]

In the case of CC(=O)Nc1ccc(O[C@@H]2O[C@H](C(=O)O)[C@@H](O)[C@H](O)[C@H]2O)cc1 [Paracetamol glucuronide, paracetamol glucuronide], the “decrease in AUC0-∞” value [1, 9] was 42%, the “reduction in Cmax” value [1, 9] was 48% and the Cmax [1, 10] was 19830 ng/mL. It also gave a Cmax [1, 11] of 38380 ng/mL.

For CC(=O)Nc1ccc(O)cc1 [Paracetamol], the Cmax [2, 12] is given as 19100 ng/mL, the t0.5 [2, 12] is given as 21.29 min and the tmax [2, 12] is given as 1.0 h. The Cmax [2, 13] was 5040 ng/mL, the t0.5 [2, 13] was 266 min and the tmax [2, 13] was 1.16 h. For the same compound, the “increase in AUC0-∞” value [1, 9] was 71%, the “increase in Cmax” value [1, 9] was 33% and the “ka (absorption rate constant)” value [1, 10] was 2.09 ± 1.11 h⁻¹. For the same compound, the “ka (absorption rate constant)” value [1, 11] was 2.35 ± 0.99 h⁻¹, the “fraction conjugated with cysteine” value ([3]; metabolism in the liver) was 3% and the “fraction conjugated with glucuronic acid” value ([3]; metabolism in the liver) was 60%. For the same compound, the “fraction conjugated with sulphuric acid” value ([3]; metabolism in the liver) was 30% and the “fraction N-hydroxylated through cytochrome P-450 (CYP2E1) to NAPQI” value [3] was 5–10%.

Compound CNC(=O)c1cc(Oc2ccc(NC(=O)Nc3ccc(Cl)c(C(F)(F)F)c3)cc2)cc[n+]1[O-] [Sorafenib N-oxide, sorafenib N-oxide] has a tmax [4, 10] of 15.5 h and a tmax ([4]; single oral sorafenib 100 mg/kg b.w. alone (IIS group)) of 16.3 h.

In the case of CNC(=O)c1cc(Oc2ccc(NC(=O)Nc3ccc(Cl)c(C(F)(F)F)c3)cc2)ccn1 [Sorafenib], the “inhibition of UGT1A1” value (UGT1A1) is listed as “particularly inhibits”, the Cmax ([5]; ref Wang [27]) is listed as 230.86 ng/mL and the tmax ([5]; ref Wang [27]) is listed as 8.14 h. The Cmax ([5]; ref Wang [39]) was 338 ng/mL, the “binding to human plasma proteins” value [6] was 99.8% and the “inhibition of UGT1A9” value (UGT1A9; in vitro studies, ref [21]) was “particularly inhibits”. For the same compound, the “inhibition of UGT1A9” value (UGT1A9; [14]) was “inhibited” and the “inhibition of UGT2B15” value (UGT2B15) was “inhibited”.

For Cc1nc(Nc2ncc(C(=O)Nc3c(C)cccc3Cl)s2)cc(N2CCN(CCO)CC2)n1 [dasatinib], the “inhibition of UGT1A9” value (UGT1A9; [14]) is given as “inhibited” and the “inhibition of UGT2B15” value (UGT2B15) is given as “inhibited”.

For C#Cc1cccc(Nc2ncnc3cc(OCCOC)c(OCCOC)cc23)c1 [erlotinib], the “increase in AUC0-t of the TKI on co-administration with paracetamol” value [7] is listed as 31%, the “increase in Cmax of the TKI on co-administration with paracetamol” value [7] is listed as 88% and the “decrease of the AUC0-∞ of paracetamol after administration of the TKI” value (shortened to “decrease of the AUC0-∞ of paracetamol”) [8] is listed as 35.5%. For the same compound, the “drop of the Cmax of paracetamol after administration of the TKI” value (shortened to “drop of the Cmax of paracetamol”) [8] was 18.9%.

For CS(=O)(=O)CCNCc1ccc(-c2ccc3ncnc(Nc4ccc(OCc5cccc(F)c5)c(Cl)c4)c3c2)o1 [lapatinib], the “increase in AUC0-t of the TKI on co-administration with paracetamol” value [7] is listed as 240%, the “increase in Cmax of the TKI on co-administration with paracetamol” value [7] is listed as 184% and the “decrease of the AUC0-∞ of paracetamol” value [8] is listed as 48.8%. The “drop of the Cmax of paracetamol” value [8] was 55.7%.

For CCN(CC)CCNC(=O)c1c(C)[nH]c(/C=C2\C(=O)Nc3ccc(F)cc32)c1C [sunitinib], the “decrease of the AUC0-∞ of paracetamol” value [8] is given as 68.19% and the “drop of the Cmax of paracetamol” value [8] is given as 63.95%.
